Test results as given in US11524966B1 (Valo Early Discovery, Inc., priority 2017, dated 2022).

Each molecule was assayed against T1, USP28 (USP28-5(1-1077)-TEV-6*His; LifeSensors) (Homo sapiens, UniProt Q96RU2) (assay: Ubiquitin-Rhodamine 110 Assay for USP28 Activity, Example A-1(b)). Settings: Ubiquitin-Rhodamine 110 assay, Example A-1(b).
T1 construct: construct USP28 (USP28-5(1-1077)-TEV-6*His; LifeSensors); TEV cleavage site (C); 6xHis (C); purchased LifeSensors
T1 sequence (Q96RU2 1-1077): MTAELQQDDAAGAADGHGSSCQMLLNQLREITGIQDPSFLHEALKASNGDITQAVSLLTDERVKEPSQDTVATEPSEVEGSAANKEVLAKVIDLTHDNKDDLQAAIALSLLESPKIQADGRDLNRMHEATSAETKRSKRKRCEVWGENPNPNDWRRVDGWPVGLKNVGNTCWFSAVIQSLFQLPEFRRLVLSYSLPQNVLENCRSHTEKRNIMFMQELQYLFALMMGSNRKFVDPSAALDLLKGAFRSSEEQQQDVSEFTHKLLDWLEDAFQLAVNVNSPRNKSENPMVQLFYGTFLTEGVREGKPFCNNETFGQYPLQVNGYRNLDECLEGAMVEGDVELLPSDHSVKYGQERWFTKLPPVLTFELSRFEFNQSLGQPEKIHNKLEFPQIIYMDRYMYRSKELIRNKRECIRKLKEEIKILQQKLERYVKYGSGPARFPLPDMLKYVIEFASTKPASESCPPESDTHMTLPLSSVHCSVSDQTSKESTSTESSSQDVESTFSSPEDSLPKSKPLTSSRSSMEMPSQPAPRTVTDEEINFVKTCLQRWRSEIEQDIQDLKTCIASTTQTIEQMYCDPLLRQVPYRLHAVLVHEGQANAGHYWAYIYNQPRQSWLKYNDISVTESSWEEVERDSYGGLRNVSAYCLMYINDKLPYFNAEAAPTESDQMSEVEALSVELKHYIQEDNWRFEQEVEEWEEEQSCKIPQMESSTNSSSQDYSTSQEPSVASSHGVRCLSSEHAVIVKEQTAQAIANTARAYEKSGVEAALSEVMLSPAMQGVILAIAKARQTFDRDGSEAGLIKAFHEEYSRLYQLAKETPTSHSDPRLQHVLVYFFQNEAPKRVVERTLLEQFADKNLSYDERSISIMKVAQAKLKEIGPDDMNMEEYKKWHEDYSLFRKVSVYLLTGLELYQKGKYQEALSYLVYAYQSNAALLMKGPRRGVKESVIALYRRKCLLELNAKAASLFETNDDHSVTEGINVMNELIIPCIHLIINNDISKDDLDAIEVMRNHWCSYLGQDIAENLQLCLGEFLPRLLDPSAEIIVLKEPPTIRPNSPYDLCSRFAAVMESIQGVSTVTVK
Type: biochemical
Summary of the method: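 Single-point screening used 10 μM compound with 90 min room-temperature incubation; follow-up dose-responses (25 μM top, 3-fold) used 75 pM USP28 1-1077 construct, 30 min compound preincubation, 25 nM Ub-Rh110, 20 min reaction, citric acid quench. Rh110 fluorescence normalised to no-enzyme and DMSO controls; IC50 from 4-parameter logistic fit.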

SMILES	USP28 A-1(b) IC50 range
CCn1ccc2cc(C(=O)N[C@H]3CCc4cc(N5CC6CCC(C5)N6)ccc4C3)nnc21 (single isomer, unassigned) [Example 11-24]	+ (>2 μM)
Cc1cnc2c(N)c(C(=O)N[C@@H]3CCc4cc(N5CCNC[C@@H](O)C5)ccc4C3)sc2n1 (single isomer, unassigned) [Example 7-5]	++ (0.2-2 μM)
Cc1ccc2c(N)c(C(=O)N[C@@H]3CCc4cc(N5CCN[C@H](CO)C5)ccc4C3)sc2n1 (single isomer, unassigned) [Example 7-10]	++ (0.2-2 μM)
Cc1cc(C(F)(F)F)c2c(N)c(C(=O)N[C@H]3COc4cc(N5CCNCC5)cc(F)c4C3)sc2n1 [Example 10-14, (R)-3-amino-N-(5-fluoro-7-(piperazin-1-yl)chroman-3-yl)-6-methyl-4-(trifluoromethyl)thieno[2,3-b]pyridine-2-carboxamide]	++ (0.2-2 μM)
Cc1nc2sc(C(=O)N[C@H]3CCc4cc(N5CC6CCC(C5)N6)ccc4C3)c(N)c2cc1F (single isomer, unassigned) [Example 11-3]	++ (0.2-2 μM)
Cc1cnc2c(N)c(C(=O)N[C@H]3CCc4cc(N5CCNC[C@H](O)C5)ccc4C3)sc2n1 (single isomer, unassigned) [Example 7-6]	++ (0.2-2 μM)
CCn1ccc2cc(C(=O)N[C@H]3CCc4cc(N5CC6CCC(C5)N6)ccc4C3)cnc21 (single isomer, unassigned) [Example 11-9]	+ (>2 μM)

Same assay, conditions: Ubiquitin-Rhodamine 110 assay, format Example A-1(b)

SMILES	USP28 A-1(b) IC50 range
Cc1ccc2c(N)c(C(=O)N[C@@H]3COc4cc(N5CCNCC5)c(Cl)cc4C3)sc2n1 (single isomer, unassigned) [Example 13-6]	+++ (0.05-0.2 μM)
Cc1ccc2c(N)c(C(=O)N[C@H]3CCc4cc(N5C6CNCC5C6)ccc4C3)sc2n1 (single isomer, unassigned) [Example 11-35]	++ (0.2-2 μM)
Cc1ccc2c(N)c(C(=O)N[C@@H]3COc4c(ccc(N5CCNCC5)c4Cl)C3)sc2n1 [Example 13-8, (S)-3-amino-N-(8-chloro-7-(piperazin-1-yl)chroman-3-yl)-6-methylthieno[2,3-b]pyridine-2-carboxamide]	+ (>2 μM)
Cc1ccc2c(N)c(C(=O)N[C@H]3COc4cc(N5CCNCC5)ncc4C3)sc2n1 [Example 16, (R)-3-Amino-6-methyl-N-(7-(piperazin-1-yl)-3,4-dihydro-2H-pyrano[3,2-c]pyridin-3-yl)thieno[2,3-b]pyridine-2-carboxamide]	++ (0.2-2 μM)
Cc1ccc2c(N)c(C(=O)N[C@@H]3CCc4cc(N5CCNCC5)cnc4C3)sc2n1 (single isomer, unassigned) [Example 15-1]	+ (>2 μM)
Cc1ccc2c(N)c(C(=O)N[C@@H]3CCc4c(ccc(N5CC6CCC(C5)N6)c4F)C3)sc2n1 (single isomer, unassigned) [Example 21-1]	++ (0.2-2 μM)
Cc1ccc2c(N)c(C(=O)N[C@H]3COc4c(ccc(N5CCNCC5)c4Cl)C3)sc2n1 [Example 13_7, (R)-3-amino-N-(8-chloro-7-(piperazin-1-yl)chroman-3-yl)-6-methylthieno[2,3-b]pyridine-2-carboxamide]	+++ (0.05-0.2 μM)
Cc1ccc2c(N)c(C(=O)N[C@H]3COc4cc(N5CC6CCC(C5)N6)c(F)c(F)c4C3)sc2n1 [Example 13-3, N-((3R)-7-(3,8-diazabicyclo[3.2.1]octan-3-yl)-5,6-difluorochroman-3-yl)-3-amino-6-methylthieno[2,3-b]pyridine-2-carboxamide]	+ (>2 μM)
Cc1ccc2c(N)c(C(=O)N[C@@H]3CCc4c(ccc(N5CCNCC5)c4F)C3)sc2n1 (single isomer, unassigned) [Example 21-5]	++++ (0.001-0.05 μM)
